Experiments:
[1] = target: Cathepsin S (UniProt P25774); test: Cathepsin enzyme inhibition assay (fluorogenic peptide substrate Z-Val-Val-Arg-AMC), Cathepsin S; format: biochemical, human and mouse; conditions: enzyme 1 nM, substrate 20 μM, pH 6.5; read-out: CatS IC50
Outline: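 Human or mouse cathepsin S (1 nM) was run in 100 mM potassium phosphate pH 6.5 with 5 mM EDTA, 0.001% Triton X-100 and 5 mM DTT. The rise in AMC fluorescence from cleavage was measured, and IC50 values were calculated by standard methods and expressed in μM.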

[2] = target: Cat L (UniProt P07711); test: Cathepsin enzyme inhibition assay (fluorogenic peptide substrate Z-Val-Val-Arg-AMC), Cathepsin L; format: biochemical, human and mouse; conditions: enzyme 1 nM, substrate 20 μM, pH 6.5; read-out: CatL IC50
Outline: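 Cathepsin L at 1 nM was mixed with compound, then started with 20 μM Z-Val-Val-Arg-AMC in pH 6.5 potassium phosphate with EDTA, Triton X-100 and 5 mM DTT. AMC fluorescence (ex 360/em 465 nm) was followed over 20 min. IC50 is given in μM.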

| IC50 [1] [nM] | IC50 [2] [nM] | Compound |
| --- | --- | --- |
| 46.7 | ≥ 25000 | C[C@H](Oc1ccc(S(=O)(=O)[C@@H]2C[C@H](C(=O)NC3(C#N)CC3)N(C(=O)C3(C)CC3)C2)c(Cl)c1)C(F)(F)F [Example 200, (2R,4R)-4-[2-Chloro-4-((S)-2,2,2-trifluoro-1-methyl-ethoxy)-benzenesulfonyl]-1-(1-methyl-cyclopropanecarbonyl)-pyrrolidine-2-carboxylic acid (1-cyano-cyclopropyl)-amide] |
| 3.4 | ≥ 25000 | N#CC1(NC(=O)[C@@H]2C[C@@H](S(=O)(=O)c3ccc(OC4COC4)cc3Cl)CN2C(=O)C2(C(F)(F)F)CC2)CC1 [Example 201, (2S,4R)-4-[2-Chloro-4-(oxetan-3-yloxy)-benzenesulfonyl]-1-(1-trifluoromethyl-cyclopropanecarbonyl)-pyrrolidine-2-carboxylic acid (1-cyano-cyclopropyl)-amide] |
| 0.1 | 606 | N#CC1(NC(=O)[C@@H]2C[C@@H](S(=O)(=O)c3ccccc3C(F)(F)F)CN2C(=O)C2(c3ccc(Cl)cc3)CC2)CC1 [Example 202, (2S,4R)-1-[1-(4-Chloro-phenyl)-cyclopropanecarbonyl]-4-(2-trifluoromethyl-benzenesulfonyl)-pyrrolidine-2-carboxylic acid (1-cyano-cyclopropyl)-amide] |
| 0.8 | 9330 | C[C@H](Oc1ccc(S(=O)(=O)[C@@H]2C[C@@H](C(=O)NC3(C#N)CC3)N(C(=O)C(C)(C)C)C2)c(Cl)c1)C(F)(F)F [Example 203, (2S,4R)-4-[2-Chloro-4-((S)-2,2,2-trifluoro-1-methyl-ethoxy)-benzenesulfonyl]-1-(2,2-dimethyl-propionyl)-pyrrolidine-2-carboxylic acid (1-cyano-cyclopropyl)-amide] |
| 205 | ≥ 25000 | C[C@H](Oc1ccc(S(=O)(=O)[C@@H]2C[C@H](C(=O)NC3(C#N)CC3)N(C(=O)C(C)(C)C)C2)c(Cl)c1)C(F)(F)F [Example 204, (2R,4R)-4-[2-Chloro-4-((S)-2,2,2-trifluoro-1-methyl-ethoxy)-benzenesulfonyl]-1-(2,2-dimethyl-propionyl)-pyrrolidine-2-carboxylic acid (1-cyano-cyclopropyl)-amide] |
| 0.2 | 72000 | N#CC1(NC(=O)[C@@H]2C[C@@H](S(=O)(=O)c3ccccc3C(F)(F)F)CN2C(=O)C2(C(F)(F)F)CC2)CC1 [Example 205, (2S,4R)-4-(2-Trifluoromethyl-benzenesulfonyl)-1-(1-trifluoromethyl-cyclopropanecarbonyl)-pyrrolidine-2-carboxylic acid (1-cyano-cyclopropyl)-amide] |
| 0.2 | ≥ 25000 | N#CC1(NC(=O)[C@@H]2C[C@@H](S(=O)(=O)c3ccccc3C(F)(F)F)CN2C(=O)CC(F)(F)F)CC1 [Example 206, (2S,4R)-4-(2-Trifluoromethyl-benzenesulfonyl)-1-(3,3,3-trifluoro-propionyl)-pyrrolidine-2-carboxylic acid (1-cyano-cyclopropyl)-amide] |
| 0.3 | ≥ 25000 | CC1(C(=O)N2C[C@H](S(=O)(=O)c3ccccc3C(F)(F)F)C[C@H]2C(=O)NC2(C#N)CC2)CC1 [Example 207, (2S,4R)-1-(1-Methyl-cyclopropanecarbonyl)-4-(2-trifluoromethyl-benzenesulfonyl)-pyrrolidine-2-carboxylic acid (1-cyano-cyclopropyl)-amide] |
| 0.8 | ≥ 25000 | CC(C)(C)OC(=O)N1C[C@H](S(=O)(=O)c2ccc(OCC(F)(F)F)cc2C(F)(F)F)C[C@H]1C(=O)NC1(C#N)CC1 [Example 208, (2S,4R)-2-(1-Cyano-cyclopropylcarbamoyl)-4-[4-(2,2,2-trifluoro-ethoxy)-2-trifluoromethyl-benzenesulfonyl]-pyrrolidine-1-carboxylic acid tert-butyl ester] |
| 0.2 | ≥ 25000 | N#CC1(NC(=O)[C@@H]2C[C@@H](S(=O)(=O)c3ccc(F)cc3C(F)(F)F)CN2C(=O)C2(C(F)(F)F)CC2)CC1 [Example 209, (2S,4R)-4-(4-Fluoro-2-trifluoromethyl-benzenesulfonyl)-1-(1-trifluoromethyl-cyclopropanecarbonyl)-pyrrolidine-2-carboxylic acid (1-cyano-cyclopropyl)-amide] |
| 0.4 | ≥ 25000 | CC(C)(C)C(=O)N1C[C@H](S(=O)(=O)c2ccc(F)cc2C(F)(F)F)C[C@H]1C(=O)NC1(C#N)CC1 [Example 210, (2S,4R)-1-(2,2-Dimethyl-propionyl)-4-(4-fluoro-2-trifluoromethyl-benzenesulfonyl)-pyrrolidine-2-carboxylic acid (1-cyano-cyclopropyl)-amide] |
| 0.3 | 63900 | CC1(C(=O)N2C[C@H](S(=O)(=O)c3ccc(OCC(F)(F)F)cc3C(F)(F)F)C[C@H]2C(=O)NC2(C#N)CC2)CC1 [Example 211, (2S,4R)-1-(1-Methyl-cyclopropanecarbonyl)-4-[4-(2,2,2-trifluoro-ethoxy)-2-trifluoromethyl-benzenesulfonyl]-pyrrolidine-2-carboxylic acid (1-cyano-cyclopropyl)-amide] |
| 0.3 | ≥ 25000 | CC(C)(C)C(=O)N1C[C@H](S(=O)(=O)c2ccc(OCC(F)(F)F)cc2C(F)(F)F)C[C@H]1C(=O)NC1(C#N)CC1 [Example 212, (2S,4R)-1-(2,2-Dimethyl-propionyl)-4-[4-(2,2,2-trifluoro-ethoxy)-2-trifluoromethyl-benzenesulfonyl]-pyrrolidine-2-carboxylic acid (1-cyano-cyclopropyl)-amide] |
| 0.4 | 7970 | N#CC1(NC(=O)[C@@H]2C[C@@H](S(=O)(=O)c3ccccc3Cl)CN2C(=O)C2(C(F)(F)F)CC2)CC1 [Example 213, (2S,4R)-4-(2-Chloro-benzenesulfonyl)-1-(1-trifluoromethyl-cyclopropanecarbonyl)-pyrrolidine-2-carboxylic acid (1-cyano-cyclopropyl)-amide] |
| 0.5 | 11300 | CC1(C(=O)N2C[C@H](S(=O)(=O)c3ccccc3Cl)C[C@H]2C(=O)NC2(C#N)CC2)CC1 [Example 214, (2S,4R)-4-(2-Chloro-benzenesulfonyl)-1-(1-methyl-cyclopropanecarbonyl)-pyrrolidine-2-carboxylic acid (1-cyano-cyclopropyl)-amide] |
| 0.2 | 285 | N#CC1(NC(=O)[C@@H]2C[C@@H](S(=O)(=O)c3ccccc3Cl)CN2C(=O)C2(c3ccccc3)CC2)CC1 [Example 216, (2S,4R)-4-(2-Chloro-benzenesulfonyl)-1-(1-phenyl-cyclopropanecarbonyl)-pyrrolidine-2-carboxylic acid (1-cyano-cyclopropyl)-amide] |
| 0.7 | 14000 | CC(C)(C)C(=O)N1C[C@H](S(=O)(=O)c2ccccc2Cl)C[C@H]1C(=O)NC1(C#N)CC1 [Example 217, (2S,4R)-4-(2-Chloro-benzenesulfonyl)-1-(2,2-dimethyl-propionyl)-pyrrolidine-2-carboxylic Acid (1-cyano-cyclopropyl)-amide] |
| 0.4 | 14600 | CC(C)C(=O)N1C[C@H](S(=O)(=O)c2ccccc2Cl)C[C@H]1C(=O)NC1(C#N)CC1 [Example 218, (2S,4R)-4-(2-Chloro-benzenesulfonyl)-1-isobutyryl-pyrrolidine-2-carboxylic acid (1-cyano-cyclopropyl)-amide] |

Reference: patent US8163793B2, “Proline derivatives” (Hoffman-La Roche Inc., priority 2009, dated 2012)
